Where two headings read alike, the source gives them in different places.
Columns and labels:
[1] = target: T1, rat MCH1 receptor (Rattus norvegicus, UniProt P97639); test: Binding affinity (Ki) at the rat MCH1 receptor
T1 construct: expressed in transfected cells
Protocol: For binding assays, pellets of transfected cells are suspended in ice-cold buffer (20 mM Tris.HCl, 5 mM EDTA, pH 7.4) and homogenized by sonication for 7 sec. The cell lysates are centrifuged at 200×g for 5 min at 4° C. The supernatants are then centrifuged at 40,000×g for 20 min at 4° C. The resulting pellets are washed once in the homogenization buffer and suspended in binding buffer (see methods for radioligand binding). Protein concentrations are determined by the method of Bradford (1976) using bovine serum albumin as the standard. Binding assays are usually performed immediately, however it is possible to prepare membranes in batch and store frozen in liquid nitrogen for future use.
Binding is performed at 25° C. for 1 hr. Incubations are terminated by rapid vacuum filtration over GF/C glass fiber filters, presoaked in 5% PEI using 50 mM Tris pH 7.4 containing 0.01% triton X-100 as wash buffer.
A methanolic solution of methyl (4S)-3-({[3-(4-[3-(acetylamino)phenyl]-3,6-dihydro-1(2H)pyridinyl)propyl]amino}carbonyl)-4-(3,4-difluorophenyl)-6-(methoxymethyl)-2-oxo-1,2,3,4-tetrahydro-5-pyrimidinecarboxylate was exposed to tritium gas at 1 atmosphere pressure in the presence of 5% palladium on carbon with stirring overnight to give the tritiated methyl (4S)-3-{[(3-{4-[3-(acetylamino)phenyl]-1-piperidinyl}propyl)amino]carbonyl}-4-(3,4-difluorophenyl)-6-(methoxymethyl)-2-oxo-1,2,3,4-tetrahydro-5-pyrimidinecarboxylate ((+)-isomer) After purification by reverse phase HPLC (Hypersil ODS, 4.6×100 mm, methanol:H2O:Et3N 10:90:1 to 100:0:1 in 15 min at 1.0 mL/min, with radiochemical and UV detection), this product was used as a radioligand in the MCH1 binding assays. The same procedure was carried out with H2 gas in place of ^3H2 to afford the non-radioactive version of Compound 10.

[2] = target: T2, human Alpha-1a Adrenergic receptor (Homo sapiens, UniProt P35348); test: Binding affinity at the human alpha-1A adrenergic receptor; conditions: Table 3c; read-out: hAlpha-1a Ki
T2 construct: expressed in transfected cells
T2 sequence (P35348 1-466): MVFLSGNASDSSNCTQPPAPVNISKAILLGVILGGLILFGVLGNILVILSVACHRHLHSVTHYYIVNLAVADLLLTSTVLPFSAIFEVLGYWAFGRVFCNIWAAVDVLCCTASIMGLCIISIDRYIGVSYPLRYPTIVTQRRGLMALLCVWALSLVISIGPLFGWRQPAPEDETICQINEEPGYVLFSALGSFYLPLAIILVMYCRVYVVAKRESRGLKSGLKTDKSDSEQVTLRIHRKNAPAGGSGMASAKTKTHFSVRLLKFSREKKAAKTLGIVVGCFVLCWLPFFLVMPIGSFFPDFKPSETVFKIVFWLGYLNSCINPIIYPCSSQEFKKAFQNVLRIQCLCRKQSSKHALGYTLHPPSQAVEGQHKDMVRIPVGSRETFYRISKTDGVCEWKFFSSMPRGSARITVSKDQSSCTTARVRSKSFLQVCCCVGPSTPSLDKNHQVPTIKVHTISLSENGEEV
Source text: (§1) Other receptors: Cell membranes expressing human dopamine D1, D2, D4 and rat D3 receptors were purchased through BioSignal, Inc. (Montreal, Canada). Binding assays using the histamine H1 receptor; dopamine receptors; and α1A, α1B, and α2 adrenergic receptors may be carried out according to the procedures described in U.S. Pat. No. 5,780,485, the disclosure of which is hereby incorporated by reference in its entirety into this application. Binding assays using the dopamine D5 receptor may be carried out according to the procedures described in U.S. Pat. No. 5,882,855, the disclosure of which is hereby incorporated by reference in its entirety into this application. Binding assays for the human α1D adrenergic receptor may be carried out according to the procedures described in U.S. Pat. No. 6,156,518, the disclosure of which is hereby incorporated by reference in its entirety into this application.

[3] = target: T3, human Dopamine D2 receptor (Homo sapiens, UniProt P14416); test: Binding affinity at the human dopamine D2 receptor; conditions: Table 3c; read-out: hD2 Ki
T3 construct: purchased BioSignal, Inc. (Montreal, Canada)
T3 sequence (P14416 whole entry): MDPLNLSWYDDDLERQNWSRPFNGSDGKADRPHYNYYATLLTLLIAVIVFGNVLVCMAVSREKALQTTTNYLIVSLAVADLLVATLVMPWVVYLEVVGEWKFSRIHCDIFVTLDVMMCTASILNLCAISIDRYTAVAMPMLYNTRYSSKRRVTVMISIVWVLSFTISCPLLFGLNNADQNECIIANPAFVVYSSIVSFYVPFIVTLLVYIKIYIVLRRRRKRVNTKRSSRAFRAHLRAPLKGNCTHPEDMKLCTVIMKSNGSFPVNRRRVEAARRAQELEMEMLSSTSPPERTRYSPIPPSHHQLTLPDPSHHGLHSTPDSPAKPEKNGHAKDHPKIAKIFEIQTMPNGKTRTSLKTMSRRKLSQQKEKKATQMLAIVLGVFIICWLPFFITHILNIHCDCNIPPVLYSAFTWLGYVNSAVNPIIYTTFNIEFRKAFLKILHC
Source text: as §1

[4] = Examples 38-141, read-out: Ki (nM) rMCH1
[5] = Examples 142-153, read-out: Ki (nM) rMCH1

T1 sequence (P97639 whole entry): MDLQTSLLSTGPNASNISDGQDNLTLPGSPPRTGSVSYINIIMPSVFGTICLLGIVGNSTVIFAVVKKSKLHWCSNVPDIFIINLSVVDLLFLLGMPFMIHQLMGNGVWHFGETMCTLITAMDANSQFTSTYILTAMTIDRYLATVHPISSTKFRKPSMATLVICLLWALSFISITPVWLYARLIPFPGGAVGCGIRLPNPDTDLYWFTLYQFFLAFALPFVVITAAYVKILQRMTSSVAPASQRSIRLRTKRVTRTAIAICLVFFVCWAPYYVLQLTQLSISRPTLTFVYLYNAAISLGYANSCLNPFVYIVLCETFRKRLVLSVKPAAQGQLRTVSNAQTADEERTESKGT

SMILES	Ki [1, 4]	Ki ([1]; Table 3c, read-out: rMCH1 Ki)	Ki [2]	Ki [3]	Ki [1, 5]
COCC1=C(C(=O)NCCCN2CCC(c3cccc(NC(=O)CC(C)(C)C)c3)CC2)[C@@H](c2ccc(F)c(F)c2)NC(=O)N1 [Example 49]	225 nM	225 nM	–	–	–
CC(=O)Nc1cccc(C2CCN(CCCNC(=O)N3C(=O)NC4=C(C(=O)OC4)C3c3ccc4nonc4c3)CC2)c1 (stereo not drawn) [Example 55]	204 nM	204 nM	–	–	–
Cc1ccc(C(=O)CCCN2CCC(c3cccc(NC(=O)C4CCCCC4)c3)CC2)cc1C [Example 59]	768 nM	768 nM	–	–	–
Cc1ccc(C(=O)CCCN2CCC(c3cccc(NC(=O)Cc4ccccc4)c3)CC2)cc1C [Example 60]	357 nM	357 nM	–	–	–
COCC(=O)Nc1cccc(C2CCN(CCCC(=O)c3ccc(C)c(C)c3)CC2)c1 [Example 62]	274 nM	274 nM	–	–	–
Cc1ccc(C(=O)CCCN2CCC(c3cccc(NS(C)(=O)=O)c3)CC2)cc1C [Example 63]	1000 nM	1000 nM	–	–	–
CCS(=O)(=O)Nc1cccc(C2CCN(CCCC(=O)c3ccc(C)c(C)c3)CC2)c1 [Example 64]	627 nM	627 nM	–	–	–
O=C(CCCN1CCC(c2cccc(NC(=O)C3CCCCC3)c2)CC1)c1ccc(Cl)cc1 [Example 67]	197 nM	197 nM	–	–	–
COc1cccc(CC(=O)Nc2cccc(C3CCN(CCCC(=O)c4ccc(Cl)cc4)CC3)c2)c1 [Example 69]	11.9 nM	11.9 nM	61 nM	–	–
COCC(=O)Nc1cccc(C2CCN(CCCC(=O)c3ccc(Cl)cc3)CC2)c1 [Example 70]	167 nM	167 nM	–	–	–
CS(=O)(=O)Nc1cccc(C2CCN(CCCC(=O)c3ccc(Cl)cc3)CC2)c1 [Example 71]	720 nM	720 nM	–	–	–
CCS(=O)(=O)Nc1cccc(C2CCN(CCCC(=O)c3ccc(Cl)cc3)CC2)c1 [Example 72]	272 nM	272 nM	–	–	–
CC(=O)Nc1cccc(C2CCN(CCCC(=O)c3ccccc3)CC2)c1 [Example 73]	342 nM	342 nM	–	–	–
CC(C)C(=O)Nc1cccc(C2CCN(CCCC(=O)c3ccccc3)CC2)c1 [Example 74]	29.5 nM	29.5 nM	115 nM	782 nM	–
O=C(Cc1ccccc1)Nc1cccc(C2CCN(CCCC(=O)c3ccccc3)CC2)c1 [Example 75]	506 nM	506 nM	–	–	–
COc1cccc(CC(=O)Nc2cccc(C3CCN(CCCC(=O)c4ccccc4)CC3)c2)c1 [Example 76]	21 nM	21 nM	41.3 nM	470 nM	–
COc1ccc(C(=O)CCCN2CCC(c3cccc(NC(C)=O)c3)CC2)c(OC)c1 [Example 77]	630 nM	630 nM	–	–	–
COc1ccc(C(=O)CCCN2CCC(c3cccc(NC(=O)Cc4ccccc4)c3)CC2)c(OC)c1 [Example 79]	1040 nM	1040 nM	–	–	–
COc1cccc(CC(=O)Nc2cccc(C3CCN(CCCC(=O)c4ccc(OC)cc4OC)CC3)c2)c1 [Example 80]	67 nM	67 nM	127 nM	1250 nM	–
CC(=O)Nc1cccc(C2CCN(CCCC(=O)c3ccc(Oc4ccccc4)cc3)CC2)c1 [Example 81]	463 nM	463 nM	–	–	–

SMILES	Ki [1, 4]	Ki ([1]; Table 3c, read-out: rMCH1 Ki)	Ki [2]	Ki [3]	Ki [1, 5]
CN(C)S(=O)(=O)Nc1cccc(C2CCN(CCCC(=O)c3ccc(Cl)cc3)CC2)c1 [Example 84]	511 nM	511 nM	–	–	–
CC(=O)Nc1cccc(C2CCN(CCCC(=O)c3cccs3)CC2)c1 [Example 85]	654 nM	654 nM	–	–	–
CC(=O)Nc1cccc(C2CCN(CCCC(=O)c3ccc(C(C)C)cc3)CC2)c1 [Example 86]	382 nM	382 nM	–	–	–
CC(=O)Nc1cccc(C2CCN(CCCC(=O)c3ccc(C)cc3)CC2)c1 [Example 87]	362 nM	362 nM	–	–	–
CC(=O)Nc1cccc(C2CCN(CCCC(=O)c3ccc(Br)cc3)CC2)c1 [Example 88]	160 nM	160 nM	–	–	–
Cc1ccc(C(=O)CCCN2CCC(c3cccc(NS(=O)(=O)C(C)C)c3)CC2)cc1C [Example 89]	615 nM	615 nM	–	–	–
CC(C)S(=O)(=O)Nc1cccc(C2CCN(CCCC(=O)c3ccc(Oc4ccccc4)cc3)CC2)c1 [Example 90]	651 nM	651 nM	–	–	–
CC(C)C(=O)Nc1cccc(C2CCN(CCCN3C(=O)c4ccccc4C3=O)CC2)c1 [Example 97]	946 nM	946 nM	–	–	–
CC(C)C(=O)Nc1cccc(C2CCN(CC[C@H](O)c3ccccc3)CC2)c1 [Example 98]	118 nM	118 nM	–	–	–
COc1cccc(CN2CCC(c3cccc(NC(=O)C(C)C)c3)CC2)c1 [Example 102]	187 nM	187 nM	–	–	–
CC(C)C(=O)Nc1cccc(C2CCN(CC[C@H](Oc3cccc4ccccc34)c3ccccc3)CC2)c1 [Example 137]	377 nM	377 nM	–	–	–
CC(C)C(=O)Nc1cccc(C2CCN(CC[C@@H](c3ccccc3)N3C(=O)c4ccccc4C3=O)CC2)c1 [Example 138]	11.2 nM	11.2 nM	–	–	–
CC(C)C(=O)Nc1cccc(C2CCN(CC[C@H](Oc3ccc(Oc4ccccc4)cc3)c3ccccc3)CC2)c1 [Example 139]	48.1 nM	48.1 nM	–	–	–
COc1ccc(O[C@H](CCN2CCC(c3ccc(NC(=O)C(C)C)cc3)CC2)c2ccccc2)cc1OC [Example 140]	121 nM	121 nM	–	–	–
CC(C)C(=O)Nc1cccc(C2CCN(Cc3c[nH]c4cc(Cl)ccc34)CC2)c1 [Example 142]	–	–	–	–	20.6 nM
Cc1ccc(-n2cc(CN3CCC(c4cccc(NC(=O)C(C)C)c4)CC3)c3ccccc32)cc1 [Example 143]	–	–	–	–	14.9 nM
CCC(=O)N[C@@H](CCN1CCC(c2cccc(NC(=O)C(C)C)c2)CC1)c1ccccc1 [Example 144]	–	–	–	–	16 nM
CC(C)C(=O)Nc1cccc(C2CCN(CC[C@H](NC(=O)Cc3ccc(F)cc3)c3ccccc3)CC2)c1 [Example 145]	–	–	–	–	3 nM
CC(C)C(=O)Nc1cccc(C2CCN(CCCc3c(-c4ccccc4)n(-c4ccccc4)c4ccccc34)CC2)c1 [Example 146]	–	–	–	–	3 nM
CC(C)C(=O)Nc1cccc(C2CCN(Cc3ccc(Oc4ccc(Cl)cc4)cc3)CC2)c1 [Example 150]	–	–	–	–	5.2 nM

Reference: patent US20040038855A1 (priority 1999, published 2004)
